This note sets out measurements from patent publication US8436006B2, “2-amino-quinazoline derivatives useful as inhibitors of β-secretase (BACE)” (Jansssen Pharmaceutica N.V., priority 2004, dated 2013).

What is called % Inhibition is the relative decrease from the control value, in per cent.

The target of test [1] is T1, β-secretase (BACE) (Homo sapiens, UniProt P56817).
T1 construct: purchased Panvera
Description: BACE FS1% Inhibition Assay (Example 160). It is filed as biochemical. How it is done:
The following reagents were used in this assay: sodium acetate, PEB8000 (Sigma), DMSO, HEPES, FS1 substrate [[…]], β-secretase (BACE) (Panvera), and 96-well plate (HE microplate, Molecular Devices). […] The FS1-substrate stock solution was prepared in DMSO as a 10 mg/mL solution. The FS1-substrate working solution was prepared by diluting the 10 mg/mL stock solution with substrate assay buffer to a final concentration of 300 μg/mL. The β-secretase (BACE) working solution was prepared by diluting a 0.83 mg/mL BACE stock solution with enzyme assay buffer to a final concentration of 4 μg/mL. Test compounds were dissolved in DMSO to 10 mM. […] The screening procedure for this assay was as follows: 15 μL of BACE working solution was pipetted into each well of a 96-well plate. To each well was the pipetted 2 μL of test compound at the selected concentration. Test compound and BACE were then mixed with a pipettor and incubated for 20 min at room temperature. To each well was then added 10 μL of the FS1 substrate working solution. The plates were then incubated for 1 hour at room temperature. […] The procedure for the blank was as follows. 15 μL of assay buffer was pipetted into each well to be used as a blank control. To each well was then added 2 μL of vehicle and 10 μL of FS1-substrate working solution. The plates were then incubated for 1 hour at room temperature. […] The procedure for the positive control was as follows: 15 μL of BACE working solution was pipetted into each well to be used as a positive control. To each well was then pipetted 2 μL of vehicle. Vehicle and BACE were then mixed with a pipettor and incubated for 20 min at room temperature. To each well was then added 10 μL of the FS1 substrate working solution. The plates were then incubated for 1 hour at room temperature. […] For test compounds, % inhibition was determined at each concentration as follows: [formula]

Test [2] concerns the target T1, β-secretase (BACE). Description: BACE % Inhibition Assay (Example 161), (Aedens)-[…]-(Dabcyl K-amide) substrate. It is filed as biochemical. Conditions: % error ±10%. How it is done: The following reagents were used in this assay: sodium acetate, PEG8000 (Sigma), DMSO, HEPES, (Aedens)-[…]-(Dabcyl K-amide) substrate, β-secretase (BACE) (Panvera), and 96-well plate (HE microplate, Molecular Devices).
The substrate stock solution was prepared in DMSO as a 10 mg/mL solution. The substrate working solution was prepared by diluting the 10 mg/mL stock solution with substrate assay buffer to a final concentration of 300 μg/mL. The β-secretase (BACE) working solution was prepared by diluting a 0.83 mg/mL BACE stock solution with enzyme assay buffer to a final concentration of 4 μg/mL.
Test compounds were dissolved in DMSO to 10 mM.
The screening procedure for this assay was as follows: 15 μL of BACE working solution was pipetted into each well of a 96-well plate. To each well was then pipetted 2 μL of test compound at the selected concentration. Test compound and BACE were then mixed with a pipettor and incubated for 20 min at room temperature. To each well was then added 10 μL of the substrate working solution. The plates were then incubated for 1 hour at room temperature.
The procedure for the blank was as follows. 15 μL of assay buffer was pipetted into each well to be used as a blank control. To each well was then added 2 μL of vehicle and 10 μL of substrate working solution. The plates were then incubated for 1 hour at room temperature.
The procedure for the positive control was as follows: 15 μl of BACE working solution was pipetted into each well to be used as a positive control. To each well was then pipetted 2 μL of vehicle. Vehicle and BACE were then mixed with a pipettor and incubated for 20 min at room temperature. To each well was then added 10 μL of the substrate working solution. The plates were then incubated for 1 hour at room temperature.
For test compounds, % inhibition was determined at each concentration as follows: % Inhibition=[[…]][FI(positive control)−FI(negative control)]

T1 sequence (P56817 46-501): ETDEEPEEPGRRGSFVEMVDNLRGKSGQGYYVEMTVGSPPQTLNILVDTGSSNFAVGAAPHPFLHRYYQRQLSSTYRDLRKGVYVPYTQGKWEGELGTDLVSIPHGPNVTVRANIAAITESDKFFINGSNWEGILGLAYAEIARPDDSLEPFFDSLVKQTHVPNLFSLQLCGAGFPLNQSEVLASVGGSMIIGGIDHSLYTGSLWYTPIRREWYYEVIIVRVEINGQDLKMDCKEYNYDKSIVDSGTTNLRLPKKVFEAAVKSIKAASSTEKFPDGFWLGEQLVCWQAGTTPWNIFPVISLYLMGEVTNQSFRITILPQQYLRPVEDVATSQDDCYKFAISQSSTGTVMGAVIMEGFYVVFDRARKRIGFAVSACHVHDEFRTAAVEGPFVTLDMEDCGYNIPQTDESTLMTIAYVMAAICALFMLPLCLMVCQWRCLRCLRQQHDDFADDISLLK

Take `CCCC(CCC)C(=O)NCC(C1CCCCC1)N1Cc2cc(Oc3ccccc3)ccc2N=C1N` (centres unmarked) [Compound 302]: the entries for the “% Inhibition (FS)” value in test [1] (0.3 μM test compound), in test [1] (1 μM test compound) and in test [1] (3 μM test compound) were <30%, 72% and 108%, respectively.

Consider `CCCC(=O)NCCN1Cc2cc(-c3ccc4ccccc4c3)ccc2N=C1N` [Compound 666], for which the “% Inhibition (FS)” value in test [1] (0.3 μM test compound) is 37%; in test [1] (1 μM test compound), <30%; in test [1] (3 μM test compound), <30%.

Regarding `NC1=Nc2ccc(C3=CCCC3)cc2CN1CCNC(=O)C1CCC(C(F)(F)F)CC1` (centres unmarked) [Compound 707], the “% Inhibition (FS)” value in test [1] (0.3 μM test compound), in test [1] (1 μM test compound) and in test [1] (3 μM test compound) was <30% throughout.

On to `NC1=Nc2ccc(Oc3ccccc3)cc2CN1C(CCNC(=O)C1CCCCC1)C1CCCCC1` (centres unmarked) [Compound 391], for which the “% Inhibition” value in test [2] (0.3 μM test compound) is 35%; in test [2] (1 μM test compound) it was 93%; in test [2] (3 μM test compound), 115%.

In the case of `COc1ccccc1-c1ccc2c(c1)CN(CCNC(=O)C1CCC(C(F)(F)F)CC1)C(N)=N2` (centres unmarked) [Compound 698], the figures for the “% Inhibition (FS)” value in test [1] (0.3 μM test compound), in test [1] (1 μM test compound) and in test [1] (3 μM test compound) were <30%, <30% and 64%, respectively.

In the case of `CC(=O)N1CCC(C(=O)NCCN2Cc3cc(-c4ccccc4)ccc3N=C2N)CC1` [Compound 702], the “% Inhibition (FS)” value in test [1] (0.3 μM test compound), in test [1] (1 μM test compound) and in test [1] (3 μM test compound) was <30% in each case.

`CN(Cc1csc(-c2ccccc2)n1)C(=O)CC[C@@H](C1CCCCC1)N1Cc2cc(-c3ccccc3F)ccc2N=C1N` [Compound 722]: the “% Inhibition (FS)” value in test [1] (0.3 μM test compound) is listed as 35%; in test [1] (1 μM test compound) it was 35%; in test [1] (3 μM test compound) it was 78%.

Regarding `CN(C(=O)CCC(C1CCOCC1)N1Cc2cc(Oc3ccccc3)ccc2N=C1N)C1CCC(C(=O)O)CC1` (centres unmarked) [Compound 743], the “% Inhibition (FS)” value in test [1] (3 μM test compound) was 130%.

For `CC(CC(=O)NCCN1Cc2cc(-c3ccccc3Cl)ccc2N=C1N)C(F)(F)F` (centres unmarked) [Compound 683], the entries for the “% Inhibition (FS)” value in test [1] (0.3 μM test compound) and in test [1] (1 μM test compound) were 64% and 86%, respectively.

For the compound `NC1=Nc2ccc(Oc3ccccc3)cc2CN1C(CCNC(=O)C1CCCC1)C1CCCCC1` (centres unmarked) [Compound 392], the “% Inhibition” value in test [2] (0.3 μM test compound) came out at 75%; in test [2] (3 μM test compound) it was 120%.

In the case of `CN(C(=O)CCC(C1CCCCC1)N1Cc2cc(Oc3ccccc3)ccc2N=C1N)C1CCC(c2nn[nH]n2)CC1` (centres unmarked) [Compound 770], the “% Inhibition (FS)” value in test [1] (0.3 μM test compound), in test [1] (1 μM test compound) and in test [1] (3 μM test compound) was <30% throughout.

As for `CCOC(=O)C1CCC(N(C)C(=O)CCC(C2CCCCC2)N2Cc3cc(Oc4ccccc4)ccc3N=C2N)CC1` (centres unmarked) [Compound 737], the “% Inhibition (FS)” value came to 22% in test [1] (0.3 μM test compound, 0.3 µM); 34% in test [1] (1 μM test compound, 1 µM); 97% in test [1] (3 μM test compound, 3 µM).

Regarding `CCCCCC(CCC(=O)NC1CCCCC1)N1Cc2cc(Oc3ccccc3)ccc2N=C1N` (centres unmarked) [Compound 149], the “% Inhibition (FS)” value was 32% in test [1] (0.3 μM test compound), 71% in test [1] (1 μM test compound) and 111% in test [1] (3 μM test compound).

On to `NC1=Nc2ccc(-c3cnc4ccccc4c3)cc2CN1CCNC(=O)C1CCC1` [Compound 670], for which the “% Inhibition (FS)” value in test [1] (0.3 μM test compound) is given as <30%; in test [1] (1 μM test compound) it was <30%; in test [1] (3 μM test compound), 44%.

On to `NC1=Nc2ccc(-c3ccccc3)cc2CN1CCNC(=O)C1CCC(C(F)(F)F)CC1` (centres unmarked) [Compound 701], for which the “% Inhibition (FS)” value in test [1] (0.3 μM test compound) is recorded as <30%; in test [1] (1 μM test compound), <30%; in test [1] (3 μM test compound), 54%.
